The values that follow come from patent US9210931B2, “Pesticidal compositions and processes related thereto” (Dow AgroSciences LLC, priority 2010, dated 2015).

The test system of series [1] is Sweetpotato whitefly-crawler (Bemisia tabaci) (BEMITA). The series can be described thus: Insecticidal test for sweetpotato whitefly-crawler in foliar spray assay on cotton plants. In kind it is in vivo. The note with it: 200 ppm foliar spray on cotton plants, graded after 8-9 days, Abbott-corrected % control, read-out: BEMITA % Ctrl @ 200 ppm. Here is the method: Cotton plants grown in 3-inch pots, with 1 small (3-5 cm) true leaf, were used as test substrate. The plants were placed in a room with whitefly adults. Adults were allowed to deposit eggs for 2-3 days. After a 2-3 day egg-laying period, plants were taken from the adult whitefly room. Adults were blown off leaves using a hand-held Devilbiss sprayer (23 psi). Plants with egg infestation (100-300 eggs per plant) were placed in a holding room for 5-6 days at 82° F. and 50% RH for egg hatch and crawler stage to develop. Four cotton plants were used for each treatment. Compounds (2 mg) were dissolved in 1 mL of acetone solvent, forming stock solutions of 2000 ppm. The stock solutions were diluted 10× with 0.025% Tween 20 in H2O to obtain a test solution at 200 ppm. A hand-held Devilbiss sprayer was used for spraying a solution to both sides of cotton leaf until runoff. Reference plants (solvent check) were sprayed with the diluent only. Treated plants were held in a holding room for 8-9 days at approximately 82° F. and 50% RH prior to grading. Evaluation was conducted by counting the number of live nymphs per plant under a microscope. Insecticidal activity was measured by using Abbott's correction formula and presented in “Table 4. Biological Data for GPA (MYZUPE) and sweetpotato whitefly-crawler (BEMITA)” (see column “BEMITA”): Corrected % Control=100*(X−Y)/X • where • X=No. of live nymphs on solvent check plants • Y=No. of live nymphs on treated plants Pesticidally Acceptable Acid Addition Salts, Salt Derivatives, Solvates, Ester Derivatives, Polymorphs, Isotopes and Radionuclides

In series [2] the test system is Green Peach Aphid (Myzus persicae) (MYZUPE). Kind of series: Bioassay on green peach aphid (GPA), foliar spray on cabbage seedlings. It counts as in vivo. The note with it: 72 h, 200 ppm foliar spray on cabbage seedlings, graded after three days, Abbott-corrected % control, read-out: MYZUPE % Ctrl @ 200 ppm. The protocol: Certain molecules disclosed in this document were tested against GPA using procedures described in the following example. In the reporting of the results, the “Table 3: GPA (MYZUPE) and sweetpotato whitefly-crawler (BEMITA) Rating Table” was used (See Table Section).
Cabbage seedlings grown in 3-inch pots, with 2-3 small (3-5 cm) true leaves, were used as test substrate. The seedlings were infested with 20-50 GPA (wingless adult and nymph stages) one day prior to chemical application. Four pots with individual seedlings were used for each treatment. Test compounds (2 mg) were dissolved in 2 mL of acetone/methanol (1:1) solvent, forming stock solutions of 1000 ppm test compound. The stock solutions were diluted 5× with 0.025% Tween 20 in H2O to obtain the solution at 200 ppm test compound. A hand-held aspirator-type sprayer was used for spraying a solution to both sides of […] leaves until runoff. Reference plants (solvent check) were sprayed with the diluent only containing 20% by volume of acetone/methanol (1:1) solvent. Treated plants were held in a holding room for three days at approximately 25° C. and ambient relative humidity (RH) prior to grading. Evaluation was conducted by counting the number of live aphids per plant under a microscope. Percent Control was measured by using Abbott's correction formula (W. S. Abbott, “A Method of Computing the Effectiveness of an Insecticide” J. Econ. Entomol. 18 (1925), pp. 265-267) as follows. Corrected % Control=100*(X−Y)/X • where • X=No. of live aphids on solvent check plants and • Y=No. of live aphids on treated plants
Biological Data for GPA (MYZUPE) and sweetpotato whitefly-crawler (BEMITA)” (See Table Section).

Regarding `CC(=O)N(C)n1cc(-c2cccnc2)nc1C` [Compound 6], the inhibition at 200 ppm was in the range of 80 to 100% in series [1] and 0 to 80% in series [2].

As to `Cc1nc(-c2cncc(F)c2)cn1N(C)C(=O)C(C)C` [Compound 22], the inhibition at 200 ppm in series [1] lay in the range of 80 to 100%; in series [2], 0 to 80%.

As for `Cc1nc(-c2cccnc2)cn1N(CC1CC1)C(=O)C(C)(C)C` [Compound 11], the inhibition at 200 ppm is 80 to 100% in series [1] and 0 to 80% in series [2].

By melting point is commonly meant the temperature, or range, at which the solid turns liquid. As to `Cc1nc(-c2cccnc2)cn1N(C)C(=O)C(C)C` [Compound 1], the melting point lay in the range of 122 to 125 °C. Further, in series [1], the inhibition at 200 ppm was in the range of 0 to 80%. Also, the inhibition at 200 ppm in series [2] was in the range of 0 to 80%.

Regarding `CCN(C(=O)C(C)(C)C)n1cc(-c2cccnc2)nc1C` [Compound 13], the values for the inhibition at 200 ppm in series [1] and in series [2] were 0 to 80% and less than 0%, respectively.

For the compound `Cc1nc(-c2cccnc2)cn1N(C)C(=O)C(C)(C)C` [Compound 7], the inhibition at 200 ppm in series [1] lay within 80 to 100%; in series [2], 0 to 80%.

For `CCN(C(=O)CC(F)(F)F)n1cc(-c2cccnc2)nc1C` [Compound 14], the inhibition at 200 ppm in series [1] and in series [2] was less than 0% each time.

With `CCN(C(=O)C(C)C)n1cc(-c2cncc(F)c2)nc1C` [Compound 24], the inhibition at 200 ppm in series [1] and in series [2] was 0 to 80% in each case.

On to `CCN(C(=O)OC(C)(C)C)n1cc(-c2cccnc2)nc1Cl` [Compound 41, tert-Butyl (2-chloro-4-(pyridin-3-yl)-1H-imidazol-1-yl)(ethyl)carbamate], for which the values for the inhibition at 200 ppm in series [1] and in series [2] were 80 to 100% and 0 to 80%, respectively.

On to `CSCCC(=O)N(CC1CC1)n1cc(-c2cccnc2)nc1C` [Compound 21], for which the inhibition at 200 ppm in series [1] was 80 to 100%; in series [2], 0 to 80%.

Compound `CC(=O)Nn1cc(-c2cccnc2)nc1Cl` [Compound 39, N-(2-Chloro-4-(pyridin-3-yl)-1H-imidazol-1-yl)acetamide] showed a melting point of 129 to 139 °C.

As to `CSC(C)CC(=O)N(C)n1cc(-c2cccnc2)nc1C` (centres unmarked) [Compound 2, N-Methyl-N-(2-methyl-4-pyridin-3-yl-imidazol-1-yl)-3-methylsulfanyl-butramide], the inhibition at 200 ppm was less than 0% in series [1] and 0 to 80% in series [2].

In the case of `CCCCC(=O)N(C)n1cc(-c2cccnc2)nc1C` [Compound 9], the inhibition at 200 ppm lay in the range of 80 to 100% in series [1] and 0 to 80% in series [2].

For the compound `Cc1nc(-c2cccnc2)c(C)n1NC(=O)OC(C)(C)C` [Compound 4, (2,5-Dimethyl-4-pyridin-3-yl-imidazol-1-yl)-carbamic acid tert-butyl ester], the inhibition at 200 ppm is 0 to 80% in series [1] and less than 0% in series [2].

On to `CCN(C(=O)CCSC)n1cc(-c2cncc(F)c2)nc1C` [Compound 25], for which the inhibition at 200 ppm lay in the range of 80 to 100% in series [1] and 0 to 80% in series [2].

Consider `CCCCC(=O)N(CC1CC1)n1cc(-c2cccnc2)nc1C` [Compound 15], for which the values for the inhibition at 200 ppm in series [1] and in series [2] were 80 to 100% and 0 to 80%, respectively.

As for `CSCCC(=O)N(C)n1cc(-c2cncc(F)c2)nc1C` [Compound 23], the inhibition at 200 ppm in series [1] and in series [2] was 80 to 100% throughout.

On to `CSCC(C)(C)C(=O)N(C)n1cc(-c2cccnc2)nc1C` [Compound 16], for which the inhibition at 200 ppm in series [1] and in series [2] was less than 0% throughout.

Consider `CSCCC(=O)N(C)n1cc(-c2cccnc2)nc1C` [Compound 10], for which the inhibition at 200 ppm in series [1] fell in the range of 80 to 100%; in series [2] it was 0 to 80%.

With `CCCCC(=O)N(CC)n1cc(-c2cccnc2)nc1C` [Compound 19], the inhibition at 200 ppm in series [1] was in the range of 80 to 100%; in series [2], 0 to 80%.

For the compound `Cc1nc(-c2cccnc2)cn1N(CC1CC1)C(=O)CC(F)(F)F` [Compound 12], the inhibition at 200 ppm was 80 to 100% in series [1] and less than 0% in series [2].

As for `CCN(C(=O)CCSC)n1cc(-c2cccnc2)nc1C` [Compound 18], the inhibition at 200 ppm in series [1] and in series [2] was 80 to 100% throughout.

On to `Cc1nc(-c2cncc(F)c2)cn1N(CC1CC1)C(=O)C(C)C` [Compound 26], for which the inhibition at 200 ppm in series [1] and in series [2] was 0 to 80% throughout.

In the case of `Cc1nc(-c2cccnc2)cn1N(CC1CC1)C(=O)C(C)C` [Compound 20], the values for the inhibition at 200 ppm in series [1] and in series [2] were less than 0% and 0 to 80%, respectively.

Turning to `Cc1nc(-c2cccnc2)cn1N(C)C(=O)CC(F)(F)F` [Compound 8], the melting point is 130.9 to 131.5 °C. In addition, the inhibition at 200 ppm in series [1] was 80 to 100%. Further, the inhibition at 200 ppm in series [2] was 0 to 80%.

With `CSCCC(=O)N(CC1CC1)n1cc(-c2cncc(F)c2)nc1C` [Compound 27], the inhibition at 200 ppm in series [1] fell in the range of 80 to 100%; in series [2], 0 to 80%.

With `CCN(C(=O)C(C)C)n1cc(-c2cccnc2)nc1C` [Compound 17], the inhibition at 200 ppm in series [1] and in series [2] was 0 to 80% throughout.

With `Cc1nc(-c2cccnc2)cn1N(C)C(=O)OC(C)(C)C` [Compound 3, Methyl-(2-methyl-4-pyridin-3-yl-imidazol-1-yl)-carbamic acid tert-butyl ester], the inhibition at 200 ppm in series [1] and in series [2] was 0 to 80% each time.

Turning to `CC(=O)Nn1cc(-c2cccnc2)nc1C` [Compound 5], the inhibition at 200 ppm in series [1] and in series [2] was 80 to 100% throughout.
